Reference: US11739043B2, “Illudin analogs, uses thereof, and methods for synthesizing the same” (Lantern Pharma Inc., priority 2018, dated 2023)

Legend:
Assay type in all cases: cell-based
DU145 cell line = experiment: Cytotoxicity / growth inhibition, 96-well CellTiter-Glo assay, DU145; conditions: for GI50: Homo sapiens, DU-145, 72 h, DU145, prostate cancer cell line, 3-day assay, read-out: GI50, concentration that inhibits 50% cell growth
Procedure: (§1) Cytotoxicity. The growth-inhibition activities of both purified UMAF (also referred to as UMAF in this example) optical enantiomers were studied in a standard 96-well cell-based assay using representative cell lines from prostate, ovarian, and lung cancers. The concentrations that cause a 50% inhibition of cell growth (GI50) were determined using a luminescent vital assay reagent (CellTiter-Glo®, Promega Corporation). The growth inhibition curves as a function of UMAF concentration are shown from a representative assay. […] The GI50 concentrations of the two forms for the six cell lines are shown below.

PC3 cell line = experiment: Cytotoxicity / growth inhibition, 96-well CellTiter-Glo assay, PC3; conditions: Homo sapiens, PC-3, 72 h; PC3, prostate cancer cell line, 3-day assay; read-out: GI50, concentration that inhibits 50% cell growth
Procedure: as §1

OVCAR-3 cell line = experiment: Cytotoxicity / growth inhibition, 96-well CellTiter-Glo assay, OVCAR-3; conditions: for GI50: Homo sapiens, 72 h, OVCAR-3, ovarian cancer cell line, 3-day assay, read-out: GI50, concentration that inhibits 50% cell growth
Procedure: as §1

SK-OV3 cell line = experiment: Cytotoxicity / growth inhibition, 96-well CellTiter-Glo assay, SK-OV3; conditions: for GI50: Homo sapiens, SK-OV-3, 72 h, SK-OV3, ovarian cancer cell line, 3-day assay, read-out: GI50, concentration that inhibits 50% cell growth
Procedure: as §1

HCC827 cell line = experiment: Cytotoxicity / growth inhibition, 96-well CellTiter-Glo assay, HCC827; conditions: Homo sapiens, 72 h; HCC827, lung cancer cell line, 3-day assay; read-out: GI50, concentration that inhibits 50% cell growth
Procedure: as §1

H1975 cell line = experiment: Cytotoxicity / growth inhibition, 96-well CellTiter-Glo assay, H1975; conditions: for GI50: Homo sapiens, NCI-H1975, 72 h, H1975, lung cancer cell line, 3-day assay, read-out: GI50, concentration that inhibits 50% cell growth
Procedure: as §1

Row | SMILES | toxicity compared between the two enantiomers (growth inhibition curves) (DU145 cell line; DU145, FIG. 4) | GI50 (DU145 cell line) | GI50 (PC3 cell line) | GI50 (OVCAR-3 cell line) | toxicity compared between the two enantiomers (growth inhibition curves) (OVCAR-3 cell line; OVCAR3, FIG. 6) | GI50 (SK-OV3 cell line) | toxicity compared between the two enantiomers (growth inhibition curves) (SK-OV3 cell line; SK-OV3, FIG. 7) | GI50 (HCC827 cell line) | toxicity compared between the two enantiomers (growth inhibition curves) (H1975 cell line; H1975, FIG. 9) | GI50 (H1975 cell line)
1 | CC1=C(CN(O)C(N)=O)C2=C(C)C3(CC3)[C@](C)(O)C(=O)C2=C1 [(+)-UMAF, (+)-hydroxyureamethylacylfulvene] | more toxic | 34.8 nM | 1120 nM | 254 nM | more toxic | 554 nM | more toxic | 897 nM | more toxic | 287 nM
2 | CC1=C(CN(O)C(N)=O)C2=C(C)C3(CC3)[C@@](C)(O)C(=O)C2=C1 [(−)-UMAF, (−)-hydroxyureamethylacylfulvene] | – | 506 nM | 824 nM | 1820 nM | – | 2400 nM | – | 1640 nM | – | 6320 nM
